Assay results published in article PMC4408175, “Functional and structural diversity in GH62 α-L-arabinofuranosidases from the thermophilic fungus Scytalidium thermophilum” (Microbial Biotechnology, 2014).

Molecular target: T1, Abf62C (Mycothermus thermophilus, UniProt A0A059U759)
T1 construct: gene AXH62C; N-terminal His tag, pET15b LIC, E. coli BL21(DE3) Gold; monomer
Experiment: X-ray crystal structure of complex, […] Å
Assay type: binding
Conditions: co-crystals, 2 mM preincubation, 20 mM xylotriose in reservoir, 22 °C; active site subsites +2NR, +1, +2R; no calcium

T1 sequence (A0A059U759 entry or part of it): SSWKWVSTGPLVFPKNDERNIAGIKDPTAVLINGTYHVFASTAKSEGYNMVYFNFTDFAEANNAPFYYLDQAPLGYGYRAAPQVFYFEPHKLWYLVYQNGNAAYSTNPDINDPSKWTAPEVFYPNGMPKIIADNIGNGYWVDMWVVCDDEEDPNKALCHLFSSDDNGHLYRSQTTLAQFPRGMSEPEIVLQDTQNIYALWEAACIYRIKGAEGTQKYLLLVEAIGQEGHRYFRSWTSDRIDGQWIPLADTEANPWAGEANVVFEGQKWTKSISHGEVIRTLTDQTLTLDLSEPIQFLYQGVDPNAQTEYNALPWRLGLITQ

Compound: OC1OC[C@@H](O[C@@H]2OC[C@@H](O[C@@H]3OC[C@@H](O)[C@H](O)[C@H]3O)[C@H](O)[C@H]2O)[C@H](O)[C@H]1O (stereo partly shown) [xylotriose]
- X-ray crystal structure of complex, 1.48 Å: Abf62C-xylotriose complex have been deposited in the Research Co-laboratory for Structural Bioinformatics Protein Data Bank
